Laboratory results as given in patent US20080090845A1, “Haloalkyl-substituted pyrimidinone derivatives” (Neurogen Corporation, priority 2006, published 2008).
Where two headings read alike, the source gives them in different places.

Experiments:
human capsaicin receptor = target: T1, human capsaicin receptor (Homo sapiens, UniProt Q8NER1); test: Calcium mobilization assay, determination of antagonist activity (Example 6); format: cell-based; settings: cells expressing human capsaicin receptor, capsaicin-induced fluorescence response
T1 construct: pBK-CMV expression construct encoding the full length human capsaicin receptor; expressed in transfected cells
T1 sequence (Q8NER1 whole entry): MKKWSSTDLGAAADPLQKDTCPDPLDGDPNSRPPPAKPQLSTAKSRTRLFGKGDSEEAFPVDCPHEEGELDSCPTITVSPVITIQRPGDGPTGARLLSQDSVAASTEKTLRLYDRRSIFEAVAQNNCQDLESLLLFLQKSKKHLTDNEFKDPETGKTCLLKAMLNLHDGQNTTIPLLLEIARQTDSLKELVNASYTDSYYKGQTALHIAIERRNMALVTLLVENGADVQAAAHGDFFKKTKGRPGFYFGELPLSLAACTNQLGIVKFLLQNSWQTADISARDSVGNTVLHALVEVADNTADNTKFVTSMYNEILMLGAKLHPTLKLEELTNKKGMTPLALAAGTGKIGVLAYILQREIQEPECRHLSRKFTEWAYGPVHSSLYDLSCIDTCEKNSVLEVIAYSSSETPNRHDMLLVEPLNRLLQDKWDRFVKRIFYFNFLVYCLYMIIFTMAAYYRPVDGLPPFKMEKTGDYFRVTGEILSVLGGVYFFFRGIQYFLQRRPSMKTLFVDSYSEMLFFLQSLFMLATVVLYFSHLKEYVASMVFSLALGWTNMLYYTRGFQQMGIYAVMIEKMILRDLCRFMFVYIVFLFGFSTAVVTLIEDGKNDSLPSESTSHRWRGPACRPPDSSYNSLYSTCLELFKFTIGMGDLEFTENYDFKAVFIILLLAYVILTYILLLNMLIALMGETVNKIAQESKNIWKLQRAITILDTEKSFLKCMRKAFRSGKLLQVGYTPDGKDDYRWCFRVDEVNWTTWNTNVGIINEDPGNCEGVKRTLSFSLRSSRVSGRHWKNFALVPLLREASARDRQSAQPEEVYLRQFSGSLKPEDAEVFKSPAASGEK
Protocol: A cDNA encoding full length human capsaicin receptor (SEQ ID NO:1, 2 or 3 of U.S. Pat. No. 6,482,611) is subcloned in the plasmid pBK-CMV (Stratagene, La Jolla, Calif.) for recombinant expression in mammalian cells.
Human embryonic kidney (HEK293) cells are transfected with the pBK-CMV expression construct encoding the full length human capsaicin receptor using standard methods. The transfected cells are selected for two weeks in media containing G418 (400 μg/ml) to obtain a pool of stably transfected cells. Independent clones are isolated from this pool by limiting dilution to obtain clonal stable cell lines for use in subsequent experiments.
Cells transfected with expression plasmids (as described in Example 4) and thereby expressing human capsaicin receptor are seeded and grown to 70-90% confluency in FALCON black-walled, clear-bottomed 96-well plates (#3904, BECTON-DICKINSON, Franklin Lakes, N.J.). The culture medium is emptied from the 96 well plates and FLUO-3 AM calcium sensitive dye (Molecular Probes, Eugene, Oreg.) is added to each well (dye solution: 1 mg FLUO-3 AM, 440 μl DMSO and 440 μl 20% pluronic acid in DMSO diluted 1:250 in Krebs-Ringer HEPES (KRH) buffer (25 mM HEPES, 5 mM KCl, 0.96 mM NaH2PO4, 1 mM MgSO4, 2 mM CaCl2, 5 mM glucose, 1 mM probenecid, pH 7.4), 50 μl diluted solution per well). Plates are covered with aluminum foil and incubated at 37° C. for 1-2 hours in an environment containing 5% CO2. After the incubation, the dye is emptied from the plates, and the cells are washed once with KRH buffer, and resuspended in KRH buffer.
To measure the ability of a test compound to agonize or antagonize a calcium mobilization response in cells expressing capsaicin receptors to capsaicin or other vanilloid agonist, the EC50 of the agonist capsaicin is first determined. An additional 20 μl of KRH buffer and 1 μl DMSO is added to each well of cells, prepared as described above. 100 μl capsaicin in KRH buffer is automatically transferred by the FLIPR instrument to each well. Capsaicin-induced calcium mobilization is monitored using either FLUOROSKAN ASCENT (Labsystems; Franklin, Mass.) or FLIPR (fluorometric imaging plate reader system; Molecular Devices, Sunnyvale, Calif.) instruments. Data obtained between 30 and 60 seconds after agonist application are used to generate an 8-point concentration response curve, with final capsaicin concentrations of 1 nM to 3 μM. KALEIDAGRAPH software (Synergy Software, Reading, Pa.) is used to fit the data to the equation: y=a*(1/(1+(b/x)^c)) to determine the 50% excitatory concentration (EC50) for the response. In this equation, y is the maximum fluorescence signal, x is the concentration of the agonist or antagonist (in this case, capsaicin), a is the Emax, b corresponds to the EC50 value and c is the Hill coefficient. Determination of Agonist Activity
Test compounds are dissolved in DMSO, diluted in 20 μl KRH buffer so that the final concentration of test compounds in the assay well is between 1 μM and 5 μM, and added to cells prepared as described above. The 96 well plates containing prepared cells and test compounds are incubated in the dark, at room temperature for 0.5 to 6 hours. It is important that the incubation not continue beyond 6 hours. Just prior to determining the fluorescence response, 100 μl capsaicin in KRH buffer at twice the EC50 concentration determined as described above is automatically added by the FLIPR instrument to each well of the 96 well plate for a final sample volume of 200 μl and a final capsaicin concentration equal to the EC50. The final concentration of test compounds in the assay wells is between 1 μM and 5 μM. […] The concentration of antagonist required to provide a 50% decrease, relative to the response observed in the presence of capsaicin and without antagonist, is the IC50 for the antagonist, and is preferably below 1 micromolar, 100 nanomolar, 10 nanomolar or 1 nanomolar.

VR = VR (Homo sapiens, UniProt Q8NER1); settings: typical value, background section; cited from earlier work
Sequence of VR (Q8NER1 whole entry): as above

[1] = read-out: IC50 determined as described in Example 6

CCn1cnc2c(=O)n(-c3ccc(Cl)cc3)c(CC(C)C(F)(F)F)nc21 (stereo not drawn) [Compound 8, 1-(4-chlorophenyl)-9-ethyl-2-(3,3,3-trifluoro-2-methylpropyl)-1,9-dihydro-6H-purin-6-one]
IC50 (human capsaicin receptor; read-out: IC50): ≤ 100 nM

CCn1cnc2c(=O)n(-c3ccc(F)cc3)c(CC(C)C(F)(F)F)nc21 (stereo not drawn) [Compound 10, 9-ethyl-1-(4-fluorophenyl)-2-(3,3,3-trifluoro-2-methylpropyl)-1,9-dihydro-6H-purin-6-one]
IC50 (human capsaicin receptor; read-out: IC50): ≤ 100 nM

CC(Cc1nc2cccnc2c(=O)n1-c1ccc(Cl)cc1)CC(F)(F)F (stereo not drawn) [Compound 35, 3-(4-chlorophenyl)-2-(4,4,4-trifluoro-2-methylbutyl)pyrido[3,2-d]pyrimidin-4(3H)-one]
IC50 (human capsaicin receptor; read-out: IC50): ≤ 100 nM

CCn1cnc2c(=O)n(-c3ccc(Cl)nc3)c(CC(C)C(F)(F)F)nc21 (stereo not drawn) [Compound 7, 1-(6-chloropyridin-3-yl)-9-ethyl-2-(3,3,3-trifluoro-2-methylpropyl)-1,9-dihydro-6H-purin-6-one]
IC50 (human capsaicin receptor; [1]): ≤ 100 nM

Cl.Cl.Cl.Cl.Cl.Cl.N.N.N.N.N.N.N.N.N.N.N.N.N.N.[O-2].[O-2].[Ru+3].[Ru+3].[Ru+4] [ruthenium red]
Ki (VR): ≥ 140000 nM

C[C@H](Cc1nc2c(ncn2C)c(=O)n1-c1ccc(Cl)cc1)C(F)(F)F [Compound 6, (R)-1-(4-Chlorophenyl)-9-methyl-2-(3,3,3-trifluoro-2-methylpropyl)-1H-purin-6(9H)-one]
IC50 (human capsaicin receptor; [1]): ≤ 100 nM

CC(CCc1nc2c(ncn2C)c(=O)n1-c1ccc(Cl)cc1)C(F)(F)F (stereo not drawn) [Compound 17, 1-(4-chlorophenyl)-9-methyl-2-(4,4,4-trifluoro-3-methylbutyl)-1,9-dihydro-6H-purin-6-one]
IC50 (human capsaicin receptor; read-out: IC50): ≤ 100 nM

CCn1cnc2c(=O)n(-c3ccc(C#N)cc3)c(CCC(C)C(F)(F)F)nc21 (stereo not drawn) [Compound 34, 4-[9-ethyl-6-oxo-2-(4,4,4-trifluoro-3-methylbutyl)-6,9-dihydro-1H-purin-1-yl]benzonitrile]
IC50 (human capsaicin receptor; read-out: IC50): ≤ 100 nM

C[C@@H](CCc1nc2c(ncn2C)c(=O)n1-c1ccc(Cl)cc1)C(F)(F)F [Compound 32, 1-(4-chlorophenyl)-9-methyl-2-[(3S)-4,4,4-fluoro-3-methylbutyl]-1,9-dihydro-6H-purin-6-one]
IC50 (human capsaicin receptor; read-out: IC50): ≤ 100 nM

CCn1cnc2c(=O)n(-c3ccc(F)cc3)c(CCC(C)C(F)(F)F)nc21 (stereo not drawn) [Compound 18, 9-ethyl-1-(4-fluorophenyl)-2-(4,4,4-trifluoro-3-methylbutyl)-1,9-dihydro-6H-purin-6-one]
IC50 (human capsaicin receptor; read-out: IC50): ≤ 100 nM

CC(CCc1nc2c(ncn2C)c(=O)n1-c1ccc(F)cc1)C(F)(F)F (stereo not drawn) [Compound 19, 1-(4-fluorophenyl)-9-methyl-2-(4,4,4-trifluoro-3-methylbutyl)-1,9-dihydro-6H-purin-6-one]
IC50 (human capsaicin receptor; read-out: IC50): ≤ 100 nM

CC(CCc1nc2c(ncn2CC(F)F)c(=O)n1-c1ccc(Cl)cc1)C(F)(F)F (stereo not drawn) [Compound 23, 1-(4-chlorophenyl)-9-(2,2-difluoroethyl)-2-(4,4,4-trifluoro-3-methylbutyl)-1,9-dihydro-6H-purin-6-one]
IC50 (human capsaicin receptor; read-out: IC50): ≤ 100 nM

C[C@H](Cc1nc2c(ncn2C)c(=O)n1-c1ccc(Cl)cc1)CC(F)(F)F [Compound 30, 1-(4-chlorophenyl)-9-methyl-2-[(2R)-4,4,4-trifluoro-2-methylbutyl]-1,9-dihydro-6H-purin-6-one]
IC50 (human capsaicin receptor; read-out: IC50): ≤ 100 nM

CC(CCc1nc2c(ncn2CC(F)(F)F)c(=O)n1-c1ccc(Cl)cc1)C(F)(F)F (stereo not drawn) [Compound 25, 1-(4-chlorophenyl)-9-(2,2,2-trifluoroethyl)-2-(4,4,4-trifluoro-3-methylbutyl)-1,9-dihydro-6H-purin-6-one]
IC50 (human capsaicin receptor; read-out: IC50): ≤ 100 nM

CCn1cnc2c(=O)n(-c3ccc(F)cc3)c(CC(C)CC(F)(F)F)nc21 (stereo not drawn) [Compound 13, 9-ethyl-1-(4-fluorophenyl)-2-(4,4,4-trifluoro-2-methylbutyl)-1,9-dihydro-6H-purin-6-one]
IC50 (human capsaicin receptor; read-out: IC50): ≤ 100 nM

CC(Cc1nc2c(ncn2CC(F)F)c(=O)n1-c1ccc(Cl)cc1)CC(F)(F)F (stereo not drawn) [Compound 21, 1-(4-chlorophenyl)-9-(2,2-difluoroethyl)-2-(4,4,4-trifluoro-2-methylbutyl)-1,9-dihydro-6H-purin-6-one]
IC50 (human capsaicin receptor; read-out: IC50): ≤ 100 nM

CC(Cc1nc2c(ncn2C)c(=O)n1-c1ccc(Cl)cc1)C(F)(F)F (stereo not drawn) [Compound 9, 1-(4-chlorophenyl)-9-methyl-2-(3,3,3-trifluoro-2-methylpropyl)-1,9-dihydro-6H-purin-6-one]
IC50 (human capsaicin receptor; read-out: IC50): ≤ 100 nM

CC(Cc1nc2c(ncn2CC(F)F)c(=O)n1-c1ccc(F)cc1)CC(F)(F)F (stereo not drawn) [Compound 26, 9-(2,2-difluoroethyl)-1-(4-fluorophenyl)-2-(4,4,4-trifluoro-2-methylbutyl)-1,9-dihydro-6H-purin-6-one]
IC50 (human capsaicin receptor; read-out: IC50): ≤ 100 nM
